Data on one compound can be found in patent publication US8399378B2, “Use of neonicotinoids in pest control” (Syngenta Crop Protection LLC, priority 1998, dated 2013).

Format in all cases: in vivo
One test concerns Spodoptera spp. The experiment in a line: Maize plot spray test (KnockOut vs conventional maize), action against Spodoptera spp. To be noted: 6 days. Here is the method:
(§1) A plot (a) planted with maize cv. KnockOut® and an adjacent plot (b) of the same size which is planted with conventional maize, both showing natural infestation with Ostrinia nubilalis, Spodoptera spp. or Heliothis, are sprayed with an aqueous emulsion spray mixture comprising 200, 100, 50, 10, 5, 1 ppm of Ti-435. Immediately afterwards, plot (b) is treated with an emulsion spray mixture comprising 200, 100, 50, 10, 5, 1 ppm of the endotoxin expressed by KnockOut®. Evaluation takes place 6 days later. The percentage reduction in population (% action) is determined by comparing the number of dead pests on the plants of plot (a) with that on the plants of plot (b).
as §1, with “thiamethoxam.” for “Ti-435.”
as §1, with “imidacloprid.” for “Ti-435.”

The next test has as its system Heliothis virescens. In words: Spray test on young cotton plants, action against Heliothis virescens larvae. The note with it: spray 100, 50, 10, 5, 1 ppm, evaluation 3 to 10 days. The text has this:
Young transgenic cotton plants which express the δ-endotoxin CryIIIA are sprayed with an aqueous emulsion spray mixture comprising 100, 50, 10, 5, 1 ppm of imidacloprid respectively. After the spray coating has dried on, the cotton plants are populated with 10 adult Anthonomus grandis, 10 Spodoptera littoralis larvae or 10 Heliothis virescens larvae respectively and introduced into a plastic container. Evaluation takes place 3 to 10 days later.
Young transgenic cotton plants which express the δ-endotoxin CryIIIA are sprayed with an aqueous emulsion spray mixture comprising 100, 50, 10, 5, 1 ppm of thiamethoxam respectively. After the spray coating has dried on, the cotton plants are populated with 10 adult Anthonomus grandis, 10 Spodoptera littoralis larvae or 10 Heliothis virescens larvae respectively and introduced into a plastic container. Evaluation takes place 3 to 10 days later.
Young transgenic cotton plants which express the δ-endotoxin CryIIIA are sprayed with an aqueous emulsion spray mixture comprising 100, 50, 10, 5, 1 ppm of Ti-435 respectively. After the spray coating has dried on, the cotton plants are populated with 10 adult Anthonomus grandis, 10 Spodoptera littoralis larvae or 10 Heliothis virescens larvae respectively and introduced into a plastic container. Evaluation takes place 3 to 10 days later. […]

The subject of the next test is Ostrinia nubilalis. In words: Maize plot spray test (KnockOut vs conventional maize), action against Ostrinia nubilalis. The note with it: 6 days. How it is done: as §1
as §1, with “thiamethoxam.” for “Ti-435.”
as §1, with “imidacloprid.” for “Ti-435.”

The test system of a further test is Diabrotica balteata. In words: Maize seedling spray test, action against Diabrotica balteata. To be noted: 6 days. How it is done:
A plot (a) planted with maize seedlings cv. KnockOut® and an adjacent plot (b) of the same size which is planted with conventional maize are sprayed with an aqueous emulsion of a spray mixture comprising 400 ppm thiamethoxam. Immediately afterwards, plot (b) is treated with an emulsion spray mixture comprising 400 ppm of the endotoxin expressed by KnockOut®. After the spray coating has dried on, the seedlings are populated with 10 Diabrotica balteata larvae in the second stage and transferred to a plastic container. The test is evaluated 6 days later. The percentage reduction in population (% action) is determined by comparing the number of dead pests on the plants of plot (a) with that on the plants of plot (b).

A further test deals with Nilaparvata lugens. The experiment in a line: Rice plant pot test, action against Nilaparvata lugens (systemic). The note with it: 6 days; for control (percentage reduction in population, % action): placed in aqueous emulsion with 400 ppm compound; for control level: pot (B) conventional rice plants. How it is done: Rice plants expressing the δ-endotoxin CryIA(b) are planted in a in pot (A) and conventional rice plants are planted in a pot (B). Pot (A) is placed in an aqueous emulsion containing 400 ppm thiamethoxam, whereas plot (B) is place in a pot containing 400 ppm thiamethoxam and 400 ppm of the δ-endotoxin CryIA(b). The plants are subsequently infected with Nilaparvata lugens larvae of the second and third stage. The test is evaluated after 6 days.
The percentage reduction in population (% action) is determined by comparing the number of dead pests on the plants of pot (A) with that on the plants of pot (B).
Rice plants expressing the δ-endotoxin CryIA(c) are planted in a in pot (A) and conventional rice plants are planted in a pot (B). Pot (A) is placed in an aqueous emulsion containing 400 ppm thiamethoxam, whereas plot (B) is place in a pot containing 400 ppm thiamethoxam and 400 ppm of the δ-endotoxin CryIA(c). The plants are subsequently infected with Nilaparvata lugens larvae of the second and third stage. The test is evaluated after 6 days.

Where [1] appears, read: plot (a) maize cv. KnockOut, spray 200, 100, 50, 10, 5, 1 ppm, natural infestation.
The mark [2] stands for this setting: plot (b) conventional maize, compound 200, 100, 50, 10, 5, 1 ppm, then same ppm of the endotoxin expressed by KnockOut.

Some results are limits rather than exact numbers.

`CN1COCN(Cc2cnc(Cl)s2)/C1=N\[N+](=O)[O-]` [thiamethoxam, 5-(2-Chlorthiazol-5-ylmethyl)-3-methyl-4-nitroimino-perhydro-1,3,5-oxadiazin]: the “control (percentage reduction in population, % action)” value in the test with Spodoptera spp. (setting [1]) is listed as “Improved control”; in the test on Ostrinia nubilalis (setting [1]) it was “Improved control”; in the test with Diabrotica balteata (plot (a) maize seedlings cv. KnockOut, spray 400 ppm, larvae in the second stage), “Improved control”; in the test on Nilaparvata lugens (pot (A) rice plants expressing δ-endotoxin CryIa(b)), “Improved control”; in the test on Nilaparvata lugens (pot (A) rice plants expressing δ-endotoxin CryIa(c)) it was “Improved control”. The control level in the test with Spodoptera spp. (setting [2]) was at most 60%; in the test with Ostrinia nubilalis (setting [2]), at most 60%; with Diabrotica balteata (plot (b) conventional maize, 400 ppm compound, then 400 ppm of the endotoxin expressed by KnockOut), at most 60%; with Nilaparvata lugens (400 ppm compound and 400 ppm δ-endotoxin CryIA(b)), at most 60%; with Nilaparvata lugens (400 ppm compound and 400 ppm δ-endotoxin CryIA(c)) it was at most 60%. In addition, the “control of the tested insects (percentage reduction in population or feeding damage, % action)” value is recorded as “superior” in the test on Heliothis virescens (transgenic cotton expressing δ-endotoxin CryIIIA, compared with non-transgenic plant) and “superior” in the test on Heliothis virescens (transgenic cotton expressing δ-endotoxin CryIa(c)).
